From article PMC5908784, “Extracellular loops 2 and 3 of the calcitonin receptor selectively modify agonist binding and efficacy” (Biochemical Pharmacology, 2018)
Changes are numbered by the printed parent chain. Where a SMILES comes first, the peptide text is derived from it. Bridges are numbered along the chain shown (N, C = ends).

Tests used:
Assay in all cases: cAMP accumulation
Format in all cases: cell-based
Conditions in all cases: mean ± S.E.M.; for Emax: cAMP maximal response, SEM; for EC50: cAMP, CV1-FlpIn cells, 30 min, IBMX
hCTR P363A = molecular target: T1, hCTR P363A (Homo sapiens, UniProt P30988, P363A)
T1 construct: expressed in transfected cells
T1 sequence (P30988 25-474 P363A): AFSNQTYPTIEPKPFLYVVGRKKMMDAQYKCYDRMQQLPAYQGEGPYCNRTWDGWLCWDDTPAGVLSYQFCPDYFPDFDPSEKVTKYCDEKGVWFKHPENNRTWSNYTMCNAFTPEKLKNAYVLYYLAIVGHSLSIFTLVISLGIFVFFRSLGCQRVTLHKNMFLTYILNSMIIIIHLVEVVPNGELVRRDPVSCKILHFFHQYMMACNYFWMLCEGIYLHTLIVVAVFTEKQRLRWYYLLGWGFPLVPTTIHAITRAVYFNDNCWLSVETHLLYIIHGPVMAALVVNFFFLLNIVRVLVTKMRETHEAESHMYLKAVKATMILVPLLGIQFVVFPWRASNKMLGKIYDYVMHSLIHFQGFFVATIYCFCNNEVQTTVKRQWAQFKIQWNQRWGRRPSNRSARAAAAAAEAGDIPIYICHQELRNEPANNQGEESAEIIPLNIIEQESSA
Summary of the method: (§1)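 Concentration-response curves, fitted to a 3-parameter logistic equation, gave EC50 and Emax; these reflect functional affinity, efficacy and stimulus-response coupling combined. Stimulation lasted 30 min with IBMX, and data were scaled to the 100 μM forskolin response.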

hCTR Y299A = molecular target: T2, hCTR Y299A (Homo sapiens, UniProt P30988, Y299A)
T2 construct: c-Myc (N); expressed in transfected cells
T2 sequence (P30988 25-474 Y299A): T1 sequence (P30988 25-474 P363A) with Y275A, A339P
Summary of the method: as §1

hCTR I371A = molecular target: T3, hCTR I371A (Homo sapiens, UniProt P30988, I371A)
T3 construct: c-Myc (N); expressed in transfected cells
T3 sequence (P30988 25-474 I371A): T1 sequence (P30988 25-474 P363A) with A339P, I347A
Summary of the method: as §1

hCTR T280A = molecular target: T4, hCTR T280A (Homo sapiens, UniProt P30988, T280A)
T4 construct: expressed in transfected cells
T4 sequence (P30988 25-474 T280A): T1 sequence (P30988 25-474 P363A) with T256A, A339P
Summary of the method: as §1

hCTR M376A = molecular target: T5, hCTR M376A (Homo sapiens, UniProt P30988, M376A)
T5 construct: c-Myc (N); expressed in transfected cells
T5 sequence (P30988 25-474 M376A): T1 sequence (P30988 25-474 P363A) with A339P, M352A
Summary of the method: as §1

EC50 (hCTR P363A) [nM] | EC50 (hCTR Y299A) [nM] | EC50 (hCTR I371A) [nM] | EC50 (hCTR T280A) [nM] | EC50 (hCTR M376A) [nM] | Structure (SMILES) | Emax (hCTR P363A) [%] | Emax (hCTR Y299A) [%] | Emax (hCTR I371A) [%] | Emax (hCTR T280A) [%] | Emax (hCTR M376A) [%]
38.9 | 33.1 | 132 | 3.31 | 141 | CC(C)C[C@H](NC(=O)CNC(=O)[C@H](C)NC(=O)[C@H](CC(C)C)NC(=O)[C@H](CCCNC(=N)N)NC(=O)[C@H](Cc1cnc[nH]1)NC(=O)[C@@H](NC(=O)[C@@H](NC(=O)[C@@H]1CSSC[C@H](NC(=O)[C@H](C)N)C(=O)N[C@@H](CC(=O)O)C(=O)N[C@@H]([C@@H](C)O)C(=O)N[C@@H](C)C(=O)N[C@@H]([C@@H](C)O)C(=O)N1)C(C)C)[C@@H](C)O)C(=O)N[C@@H](CC(C)C)C(=O)N[C@@H](CO)C(=O)N[C@@H](CCCNC(=N)N)C(=O)N[C@@H](CO)C(=O)NCC(=O)NCC(=O)N[C@H](C(=O)N[C@H](C(=O)N[C@@H](CCCCN)C(=O)N[C@@H](CC(N)=O)C(=O)N[C@@H](CC(N)=O)C(=O)N[C@@H](Cc1ccccc1)C(=O)N[C@H](C(=O)N1CCC[C@H]1C(=O)N[C@H](C(=O)N[C@@H](CC(N)=O)C(=O)N[C@H](C(=O)NCC(=O)N[C@@H](CO)C(=O)N[C@@H](CCCCN)C(=O)N[C@@H](C)C(=O)N[C@@H](Cc1ccccc1)C(N)=O)C(C)C)[C@@H](C)O)C(C)C)C(C)C)C(C)C [hαCGRP] | 38 ± 7 | 62 ± 16 | 58 ± 15 | 107 ± 21 | 47 ± 7
0.389 | 0.135 | 0.0794 | 0.0398 | 0.234 | CSCC[C@H](NC(=O)CNC(=O)[C@H](CO)NC(=O)[C@H](Cc1ccccc1)NC(=O)[C@H](CCCNC(=N)N)NC(=O)[C@H](Cc1c[nH]cn1)NC(=O)[C@H](Cc1ccccc1)NC(=O)[C@H](CC(N)=O)NC(=O)[C@H](CC(N)=O)NC(=O)[C@H](CC(C)C)NC(=O)[C@H](CC(N)=O)NC(=O)[C@H](CCCNC(=N)N)NC(=O)[C@H](Cc1c[nH]c2ccccc12)NC(=O)[C@H](Cc1ccc(O)cc1)NC(=O)[C@H](C)NC(=O)[C@H](CO)NC(=O)[C@H](CC(C)C)NC(=O)[C@@H](NC(=O)[C@@H]1CSSC[C@H](N)C(=O)N[C@@H](CO)C(=O)N[C@@H](CC(N)=O)C(=O)N[C@@H](CC(C)C)C(=O)N[C@@H](CO)C(=O)N[C@@H]([C@@H](C)O)C(=O)N1)C(C)C)C(=O)NCC(=O)N[C@@H](Cc1ccccc1)C(=O)NCC(=O)N1CCC[C@H]1C(=O)N[C@@H](CCC(=O)O)C(=O)N[C@H](C(=O)N1CCC[C@H]1C(N)=O)[C@@H](C)O [pCT] (H-CSNLSTCVLSAYWRNLNNFHRFSGMGFGPETP-NH2; disulfide 1-7) | 148 ± 15 | 117 ± 9 | 35 ± 5 | 113 ± 5 | 87 ± 11
 |  |  |  |  | CC(C)C[C@H](NC(=O)[C@H](CCCCN)NC(=O)CNC(=O)[C@H](CC(C)C)NC(=O)[C@@H](NC(=O)[C@@H]1CSSC[C@H](N)C(=O)N[C@@H](CO)C(=O)N[C@@H](CC(N)=O)C(=O)N[C@@H](CC(C)C)C(=O)N[C@@H](CO)C(=O)N[C@@H]([C@@H](C)O)C(=O)N1)C(C)C)C(=O)N[C@@H](CO)C(=O)N[C@@H](CCC(N)=O)C(=O)N[C@@H](CCC(=O)O)C(=O)N[C@@H](CC(C)C)C(=O)N[C@@H](Cc1c[nH]cn1)C(=O)N[C@@H](CCCCN)C(=O)N[C@@H](CC(C)C)C(=O)N[C@@H](CCC(N)=O)C(=O)N[C@H](C(=O)N[C@@H](Cc1ccc(O)cc1)C(=O)N1CCC[C@H]1C(=O)N[C@@H](CCCNC(=N)N)C(=O)N[C@H](C(=O)N[C@@H](CC(N)=O)C(=O)N[C@H](C(=O)NCC(=O)N[C@@H](CO)C(=O)NCC(=O)N[C@H](C(=O)N1CCC[C@H]1C(N)=O)[C@@H](C)O)[C@@H](C)O)[C@@H](C)O)[C@@H](C)O [sCT] | 111 ± 9 | 110 ± 7 | 28 ± 2 | 107 ± 14 | 102 ± 6
 |  |  |  |  | CC[C@H](C)[C@H](NC(=O)[C@H](C)NC(=O)[C@@H](NC(=O)[C@H](CCC(N)=O)NC(=O)[C@@H]1CCCN1C(=O)[C@H](Cc1ccccc1)NC(=O)[C@@H](NC(=O)[C@H](Cc1c[nH]cn1)NC(=O)[C@H](Cc1ccccc1)NC(=O)[C@H](CCCCN)NC(=O)[C@H](CC(N)=O)NC(=O)[C@H](Cc1ccccc1)NC(=O)[C@H](CC(=O)O)NC(=O)[C@H](CCC(N)=O)NC(=O)[C@@H](NC(=O)[C@H](Cc1ccc(O)cc1)NC(=O)[C@@H](NC(=O)CNC(=O)[C@H](CC(C)C)NC(=O)[C@H](CCSC)NC(=O)[C@@H]1CSSC[C@H](N)C(=O)NCC(=O)N[C@@H](CC(N)=O)C(=O)N[C@@H](CC(C)C)C(=O)N[C@@H](CO)C(=O)N[C@@H]([C@@H](C)O)C(=O)N1)[C@@H](C)O)[C@@H](C)O)[C@@H](C)O)[C@@H](C)O)C(=O)NCC(=O)N[C@H](C(=O)NCC(=O)N[C@@H](C)C(=O)N1CCC[C@H]1C(N)=O)C(C)C [hCT] | 111 ± 5 | 133 ± 9 | 24 ± 2.7 | 97 ± 6 | 84.3 ± 10
 |  |  |  |  | CC(C)C[C@H](NC(=O)[C@H](CC(N)=O)NC(=O)[C@H](CC(N)=O)NC(=O)[C@H](CO)NC(=O)[C@H](CO)NC(=O)[C@H](CCCNC(=N)N)NC(=O)[C@@H](NC(=O)[C@H](CC(C)C)NC(=O)[C@H](Cc1ccccc1)NC(=O)[C@H](CC(N)=O)NC(=O)[C@H](C)NC(=O)[C@H](CC(C)C)NC(=O)[C@H](CCCNC(=N)N)NC(=O)[C@H](CCC(N)=O)NC(=O)[C@@H](NC(=O)[C@H](C)NC(=O)[C@@H]1CSSC[C@H](NC(=O)[C@@H](N)CCCCN)C(=O)N[C@@H](CC(N)=O)C(=O)N[C@@H]([C@@H](C)O)C(=O)N[C@@H](C)C(=O)N[C@@H]([C@@H](C)O)C(=O)N1)[C@@H](C)O)C(C)C)C(=O)NCC(=O)N1CCC[C@H]1C(=O)N[C@H](C(=O)N[C@@H](CC(C)C)C(=O)N1CCC[C@H]1C(=O)N1CCC[C@H]1C(=O)N[C@H](C(=O)N[C@@H](CC(N)=O)C(=O)N[C@H](C(=O)NCC(=O)N[C@@H](CO)C(=O)N[C@@H](CC(N)=O)C(=O)N[C@H](C(=O)N[C@@H](Cc1ccc(O)cc1)C(N)=O)[C@@H](C)O)C(C)C)[C@@H](C)O)C(C)C [rAmy] | 94 ± 20 | 102 ± 1 | 47 ± 7 | 69 ± 8 | 85 ± 13
